Results as given in ChEMBL document CHEMBL3585318, “Effect of water solvation on the lipophilicity of isomeric pyrimidine-carboxamides” (Bioorg Med Chem, 2015).

Assays:
Type in all cases: physicochemical
[1] = Lipophilicity, log D of the compound at pH 7.4 by UV/Vis spectroscopy based shake-flask method; conditions: buffer
[2] = Dissociation constant, pKa of the compound
[3] = Partition coefficient of buffer-octanol system, logP of the compound by shake-flask method

| Structure (SMILES) | logD [1] | pKa [2] | logP [3] |
| --- | --- | --- | --- |
| CCNC(=O)c1cc(OC)nc(N(C)C)n1 | 2.6 | 2.4 | 2.5 |
| CCNC(=O)c1cc(N(C)C)nc(OC)n1 | 1.6 | 3.8 | 1.7 |
| CCNC(=O)c1nc(OC)cc(N(C)C)n1 | 1 | 2.9 | 1.1 |
| O=C1CCCc2cccnc21 | 0.2 |  | 0.4 |
| O=C1CCCc2ccncc21 | 0.8 |  | 0.9 |
| O=C1CCCc2cnccc21 | 1 |  | 1.5 |
| O=C1CCCc2ncccc21 | 0.9 |  | 1.2 |
